Reference: PubChem BioAssay AID1645866 (Buhrlage Lab, Dana-Farber Cancer Institute and Novartis …, 2021)
Active and inactive are the calls of the source.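 Rule for the calls: active = in confirmatory dose-response testing, peak deubiquitinase inhibition of 30% or more; inactive = the rest.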

Molecular target: Ubiquitin carboxyl-terminal hydrolase 28 (Homo sapiens) (UniProt Q96RU2)
Assay: Ubiquitin-specific peptidase 28 DUB inhibitors, biochemical concentration-dependence assay, validation of primary screening hits (AID 1645866)
Conditions: purified USP28, ubiquitin-rhodamine fluorescence, 30 min

Ubiquitin carboxyl-terminal hydrolase 28 (Homo sapiens), sequence (Q96RU2 whole entry, looked up): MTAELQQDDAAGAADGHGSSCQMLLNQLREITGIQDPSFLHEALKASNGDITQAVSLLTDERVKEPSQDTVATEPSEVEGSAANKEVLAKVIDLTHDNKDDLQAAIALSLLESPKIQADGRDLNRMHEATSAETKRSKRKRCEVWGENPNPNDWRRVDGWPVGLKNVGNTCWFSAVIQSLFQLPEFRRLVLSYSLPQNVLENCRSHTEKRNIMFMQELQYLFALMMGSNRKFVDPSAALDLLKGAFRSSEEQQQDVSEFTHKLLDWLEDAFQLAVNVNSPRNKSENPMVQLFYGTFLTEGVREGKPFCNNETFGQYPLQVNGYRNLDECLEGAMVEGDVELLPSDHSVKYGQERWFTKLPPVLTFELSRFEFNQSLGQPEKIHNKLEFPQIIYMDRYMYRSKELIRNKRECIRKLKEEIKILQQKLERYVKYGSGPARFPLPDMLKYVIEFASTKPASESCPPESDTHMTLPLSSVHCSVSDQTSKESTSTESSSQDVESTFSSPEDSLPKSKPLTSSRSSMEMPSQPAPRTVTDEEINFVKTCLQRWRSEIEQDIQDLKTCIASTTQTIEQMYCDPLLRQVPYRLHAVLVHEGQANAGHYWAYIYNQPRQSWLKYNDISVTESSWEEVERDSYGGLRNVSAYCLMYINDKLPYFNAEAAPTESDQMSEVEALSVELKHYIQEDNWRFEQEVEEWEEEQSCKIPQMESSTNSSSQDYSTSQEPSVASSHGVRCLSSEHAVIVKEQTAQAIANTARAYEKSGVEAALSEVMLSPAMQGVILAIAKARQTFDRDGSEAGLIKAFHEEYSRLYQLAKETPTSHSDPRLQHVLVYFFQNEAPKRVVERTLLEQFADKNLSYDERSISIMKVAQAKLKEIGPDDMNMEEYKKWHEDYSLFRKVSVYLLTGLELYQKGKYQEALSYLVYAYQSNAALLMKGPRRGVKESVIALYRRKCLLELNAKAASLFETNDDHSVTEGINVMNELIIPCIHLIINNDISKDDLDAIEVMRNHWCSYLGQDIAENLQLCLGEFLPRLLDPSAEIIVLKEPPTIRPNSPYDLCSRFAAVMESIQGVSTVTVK

Compound | IC50
O=C(Nc1cc(-c2cccnc2)no1)c1ccc(F)c(F)c1 | 10.9 µM
COc1ccc(/C=C/C(=O)Nc2cccc(S(=O)(=O)Nc3ccccc3Cl)c2)c(OC)c1 | 21.4 µM
CCC1(C)Cc2c(sc3nc(SCC(=O)Nc4ccc(C(C)=O)cc4)nc(N)c23)CO1 (stereo not given) | 17.9 µM
Cc1cccc(C(=O)NCc2nc3ccccc3n2Cc2ccccc2C)c1 | > 50 µM (inactive)
O=C(Nc1ccc2c(c1)OCCO2)c1ccc(N2CCCCC2)nn1 | 31.6 µM
CC(C)N1C[C@@H]2C[C@H](NS(=O)(=O)c3cccc(C#N)c3)CN2Cc2ccccc21 | > 50 µM (inactive)
O=C(NC1CC1)c1ccnn1-c1ccc2ccc(-c3ccncc3)cn12 | > 50 µM (inactive)
COc1ccc(-c2ccnc(-c3ccc(OCc4cccc(F)c4)cc3)n2)cc1 | > 50 µM (inactive)
Cc1cc(C)nc(-n2nc(C)c3c2NC(=O)CSC3c2ccccc2F)n1 (stereo not given) | 34.3 µM
COc1ccccc1-c1nc(Cn2nnc(C(=O)Nc3cc(C)cc(C)c3)c2N)c(C)o1 | 37.4 µM
CCCCCCCc1cc(O)cc(O)c1 | 4.32 µM
N#Cc1ccc(NC(=O)Nc2cccn(Cc3ccccc3Br)c2=O)cc1 | 4.34 µM
Cn1nc(-c2nc(-c3ccccc3)no2)c2c1CCN(C(=O)C1CC1)C2 | > 50 µM (inactive)
Cc1nc(Nc2ncc(C)s2)cc(C2CN(C(=O)Cc3ccccc3)CCO2)n1 (stereo not given) | 43.8 µM
Cc1cccc(-n2nc(C)c3c2NC(=O)CC3C(=O)c2cc3ccccc3o2)c1 (stereo not given) | 25.3 µM
CC(=O)N1Cc2ccccc2CC2(CCCN(CC3CCOCC3)C2)C1 (stereo not given) | > 50 µM (inactive)
Cc1ccc2nc(N3CCc4ccccc4C3)c3nncn3c2c1 | > 50 µM (inactive)
CC(=O)N1CCc2cc(S(=O)(=O)NC(Cc3ccccc3)C(=O)Nc3cccc(Cl)c3C)ccc21 (stereo not given) | 9.5 µM
O=C(Cn1c(NCc2ccccc2)nc2ccccc21)NCC(F)(F)F | 46.6 µM
CCOc1ccc(NC(=O)Cn2c(=O)n(CCC(=O)NCc3ccccc3OC)c(=O)c3ccccc32)cc1 | 4.01 µM
Cc1ccc(Cn2cc(-c3noc(-c4ccc[nH]4)n3)nn2)cc1 | 16.2 µM
O=C(NCc1nc(-c2ccc3c(c2)[nH]c(=O)n3C2CCCC2)no1)c1ccccc1 | > 50 µM (inactive)
O=C(CNC(=O)c1cc2ccccc2[nH]1)Nc1ccc2c(c1)OCCO2 | 45.9 µM
CCOC(=O)c1ccc(-n2c(=O)c(C#N)cc3c(=O)n4ccccc4nc32)cc1 | > 50 µM (inactive)
Cc1c(-c2ccc(C#N)cc2)oc2ccc(Br)cc2c1=O | 1.8 µM

Compound | IC50
Cc1cc(-n2c(C)cc(-c3csc(N)n3)c2C)no1 | > 50 µM (inactive)
Cc1c(C(=O)NCc2cccc(Br)c2)oc2c1-c1[nH]ncc1CC2 | 29.5 µM
COc1ccc2c(C)c(CC(=O)N3CCC[C@H]3C(=O)O)c(=O)oc2c1C | 44.6 µM
COc1ccc(N2CCN(Cc3nnnn3Cc3ccc4c(c3)OCO4)CC2)cc1 | > 50 µM (inactive)
COc1ccc(CCNC(=O)c2cn(-c3ccc(F)cc3)nn2)cc1OC | 20.8 µM
CCOc1ccc(NC(=O)c2nc3c(=O)[nH]c4cc(C)ccc4n3n2)cc1 | 47.5 µM
Cn1c(COc2ccccc2)nnc1SCC(=O)Nc1ccc(N2CCOCC2)cc1 | 2.43 µM
Cc1ccc(C(=O)Nc2cc3c4c(c2)CC(=O)N4CCC3)cc1 | 8.27 µM
CCC(=O)Nc1cccnc1-c1ccc(C(=O)Nc2cccc(OC)c2)cc1 | 14.5 µM
CCc1nc(-c2cc(C(=O)N3CCOCC3)c3ccccn23)cs1 | > 50 µM (inactive)
Cc1sc2nc(CN3CCCC3)nc(NCCc3ccc(Cl)cc3)c2c1C | > 50 µM (inactive)
Cc1noc(-c2ccc(N3CCCC(C(=O)NCc4ccc(F)cc4)C3)nc2)n1 (stereo not given) | 20.3 µM
Cc1nc(-c2ccccc2F)sc1C(=O)Nc1cccnc1 | 26.8 µM
CC(C)NS(=O)(=O)c1ccc(OCC(=O)N2CCC(Cc3ccccc3)CC2)cc1 | 5.5 µM
COC1=CC(=O)c2c(O)c(C)c(CC(C)=O)c(O)c2C1=O | > 50 µM (inactive)
CC(=O)c1sc(NC(=O)/C=C/c2ccccc2)nc1-c1ccccc1 | 18.7 µM
COc1ccc(-c2nonc2NC(=O)C(c2ccccc2)c2ccccc2)cc1OC | > 50 µM (inactive)
Cc1nc(N2CCCC2)ncc1C(=O)Nc1ccc(F)c(F)c1 | 32.9 µM
CCn1cc2c(n1)c(=O)n(Cc1ccccc1)c(=O)n2CC(=O)Nc1ccc(OC)cc1 | 10.5 µM
Cc1cc(O)c(Oc2cc(C)cc(O)c2O)c(O)c1 | 15.1 µM
Cc1ccc2nc(CCc3ccc(NS(=O)(=O)c4cccc(Cl)c4C)cc3)[nH]c2c1 | 27.1 µM
O=C(CCc1c[nH]c2ccccc12)Nc1ccc(N2CCOCC2)cc1 | 24.9 µM
Cc1cc(N2CCN(c3ncccn3)CC2)nc2ccc(NC(=O)c3ccncc3)cc12 | 7.27 µM
Cc1nc(-c2noc3ccc(C(=O)Nc4cccnc4)cc23)cs1 | 15.7 µM
COc1cccc2cc(C(=O)Nc3ccc4c(c3)OCCO4)oc12 | 9.86 µM

Compound | IC50
O=C(CSc1ccc2nnc(-c3ccccc3)n2n1)N1CCCc2ccccc21 | 9.31 µM
C/C1=C/CC(O)/C=C/C(C)C(O)C(C)/C=C(\C)C(=O)c2c(O)c(C)cc3c2C(=O)C(Cl)=C(NC(=O)\C=C/C=C/C=C\C(C)C(O)CC1=O)C3=O (stereo not given) | 31.3 µM
CCCCCCCCCC(CCCCCCCCCC(=O)O)O[C@H]1O[C@@H](COC(C)=O)[C@H](O)[C@@H](O)[C@H]1OC(=O)CC(=O)O (stereo not given in full) | 18.4 µM
CCCc1nc2sc3c(NCCc4ccc(OC)c(OC)c4)ncnc3c2c2c1CCC2 | < 0.05 µM
CCOC(=O)c1cnc(C(F)(F)F)nc1Sc1n[nH]c(-c2cccs2)n1 | > 50 µM (inactive)
O=c1[nH]c2ccc(S(=O)(=O)Nc3ccc(O)c4ccccc34)cc2[nH]1 | 20 µM
Cc1c(-c2nsc(NC(=O)c3ccc(Cl)cc3)n2)nnn1-c1ccccc1F | 5.34 µM
O=C(Cn1cnc2ccccc21)Nc1ccc2c(c1)CCC2 | 28.7 µM
O=C(C(c1ccccc1)c1ccccc1)N1CCC(c2nc3c(nnn3Cc3c(F)cccc3Cl)c(=O)[nH]2)CC1 | 6.96 µM
O=c1ncn(Cc2ccc3c(c2)OCO3)cc1-c1ncc(C(F)(F)F)cc1Cl | > 50 µM (inactive)
Cc1ccc(-c2nc(Cn3cnc4ccccc4c3=O)cs2)cc1 | 4.97 µM
COc1ccc(C(=O)C2CC(=O)Nc3c2c(C)nn3-c2ccc(Br)cc2)cc1 (stereo not given) | 20.1 µM
O=C1C[C@@H](O)[C@H](O)[C@@]23O[C@@]12C1(Oc2cccc4cccc(c24)O1)[C@@H]1O[C@@H]1[C@@H]3O | 24.3 µM
Cc1ccccc1-c1nnc(-c2ccc(C(=O)NCc3ccccc3F)cc2)o1 | 12.6 µM
O=C1/C(=C/c2cn(-c3ccccc3)nc2-c2ccc3c(c2)OCCO3)Cc2ccccc21 | > 50 µM (inactive)
Cc1ccc(Nc2nc(Nc3cccc(Cl)c3)nc3nccnc23)cc1 | > 50 µM (inactive)
Cc1cc2nc(-c3ccc(SCc4ccccn4)nc3)[nH]c2cc1C | 12.5 µM
O=C(CSc1nc2cc(S(=O)(=O)Nc3ccccc3Cl)ccc2o1)Nc1ccc(N2CCOCC2)cc1 | 34.5 µM
CCOc1ccc(Nc2cc(C(=O)NCCc3ccccc3)c3ccccc3n2)cc1 | 26 µM
COc1ccc(S(=O)(=O)N2CCc3ccccc32)cc1C(=O)Nc1ccc2[nH]c(=O)[nH]c2c1 | 9.13 µM
CN1CCN(C(=O)c2cc(-c3ccn(-c4ccccc4)n3)n3ccccc23)CC1 | > 50 µM (inactive)
Cc1cc(O)c2c3c(c(O)cc2c1)C(=O)c1c(O)cccc1C3=O | 1.89 µM
c1ccc(CN2CCN(c3nc4ccccc4n4nnnc34)CC2)cc1 | > 50 µM (inactive)
COc1ccccc1CNC(=O)Nc1cccc2ccccc12 | 42.4 µM
C/C=C1/C2=CCCN3C(=O)O[C@H]([C@H]1O)[C@H]23 | 2.94 µM

Compound | IC50
COc1cc2c(cc1OC)C(COc1ccccc1OC)N(C(=O)c1ccc3ccccc3c1)CC2 (stereo not given) | > 50 µM (inactive)
CCOc1ccc(NC(=O)c2cc(-c3ccccc3)c(N3CCOCC3)s2)cc1 | 14 µM
COC1=C(C2=C(OC)C(=O)c3cc4c(c(O)c3C2=O)C(=O)OC(C)C4)C(=O)c2c(cc3c(c2O)C(=O)OC(C)C3)C1=O (stereo not given) | 1.05 µM
Oc1cc(OCc2cccc(C(F)(F)F)c2)ccc1-c1ccn[nH]1 | 3.84 µM
COc1ccc(Cl)cc1-n1nnc(C(=O)N2CCc3ccccc3C2)c1C | > 50 µM (inactive)
O=C(NCC1CC1)C1CCCN(c2ccc(-c3ccccc3)nn2)C1 (stereo not given) | > 50 µM (inactive)
CCn1cc(-c2nc(-c3ccccc3)no2)c(=O)c2cc(F)ccc21 | 7.65 µM
CCCc1c(C(=O)O)c(O[C@H]2O[C@H](C)[C@@H](OC)[C@H](OC)[C@@H]2OC)cc2cc3c(c(O)c12)C(=O)c1c(O)cc(O[C@@H]2O[C@@H](C)[C@H](O[C@H]4O[C@H](C)[C@@H](OC)[C@H](OC)[C@@H]4O)[C@@H](OC)[C@H]2O)cc1C3=O | > 50 µM (inactive)
Cc1ccc(NC(=O)Cn2c(Nc3cccc(C)c3)nc(C)cc2=O)cc1 | 25.4 µM
CNc1nc2c(c(=O)n1Cc1ccccc1)CN(C(=O)c1ccc(CN)cc1)CC2 | 48.4 µM
CCCc1nc2sc3c(NCCCN4CCOCC4)ncnc3c2c2c1CCC2 | 0.743 µM
CS(=O)(=O)N1CCCc2cc(C(=O)Nc3ccc4c(c3)OCO4)ccc21 | 4.54 µM
CCN(c1ccc(NC(=O)CSc2nnc(-c3ccccc3)n2-c2ccc(OC)c(OC)c2)cc1)C(C)C | 6.1 µM
N#Cc1cn(CC(=O)N2CCc3ccccc32)c2ccccc12 | 17.2 µM
O=C(CCCc1c[nH]c2ccccc12)Nc1ccc2c(c1)OCCO2 | 4.42 µM
CS(=O)(=O)NC1CCCN(C(=O)Nc2cccc3ccccc23)C1 (stereo not given) | 30.5 µM
O=C(CNS(=O)(=O)c1ccc(F)cc1)N1CCCC(c2nnc3ccccn23)C1 (stereo not given) | 24.4 µM
O=C(Nc1ccc(SCc2nnc(-c3ccccc3)o2)cc1)C1CC1 | 8.42 µM
Nc1ccc(F)c(NS(=O)(=O)c2ccccc2)c1 | > 50 µM (inactive)
CC(C)(C)n1ncc2c(=O)n(Cc3cccc([N+](=O)[O-])c3)cnc21 | 6.69 µM
O=C(CSc1nnnn1-c1ccccc1)Nc1ccccc1 | 39.8 µM
CCN1C(=O)c2cccnc2Sc2cc(NC(=O)c3ccc(Cl)s3)ccc21 | 4.61 µM
O=C(NC1CCN(Cc2ccccc2)CC1)c1[nH]nc2c1COc1ccccc1-2 | 6.98 µM
C=C1CCC2[C@](C)(CCC[C@]2(C)C(=O)OC)[C@H]1CCc1ccoc1C[N+](C)(C)Cc1ccccc1 (stereo not given in full) | 20.1 µM
Cc1ccc(NC(=O)CNC(=O)c2cc3ccccc3o2)cc1 | 21.2 µM
